The test system of this assay is Con A-induced hepatitis model. The assay is described as follows: Con A-induced hepatitis model: liver-infiltrating cells counted with FACS Calibur. Format: in vivo, Male BALB/c mice. On the procedure: Male BALB/c mice, aged 8 to 12 weeks, were purchased from Charles River, Japan. Concanavalin A (referred to as “Con A,” hereinafter) was dissolved in phosphate-buffered saline (PBS). 0.2 ml of this solution was intravenously administered to the animals to deliver 40 mg/kg of Con A. KRP-203 suspended in distilled water was orally administered at a dose of 0.1 mg/10 g body weight 24 hours before the administration of Con A. The animals were sacrificed 24 hours after the administration of Con A and the serum transaminase activity was measured. Also, the liver was perfused with 30 mL 0.1% EDTA-PBS to collect liver infiltrate (Eur. J. Immunol., 17: 37, 1987). To avoid contamination with lymphocytes in the periphery blood, the first 2.5 ml of the collected 0.1% EDTA-PBS was discarded. The collected cells were stained with anti-CD4 antibody, anti-CD8 antibody, anti-CD3 antibody, anti-CD45/B220 antibody, anti-CD11b antibody, anti-Ly-49C antibody and were counted with FACS Calibur.

Where [1] appears, read: KRP-203 1 mg/kg oral 24 h before Con A 40 mg/kg i.v., 24 h after Con A.

Structures can show the parent of a compound that is named as a salt.

As for `NC(CO)(CO)CCc1ccc(Sc2cccc(OCc3ccccc3)c2)cc1Cl` [KRP-203, 2-amino-2-[4-(3-benzyloxyphenylthio)-2-chlorophenyl]ethyl-1,3-propanediol hydrochloride], under setting [1], the “Number of cells that infiltrated the liver: B220^+” value was 2.06 ± 0.21 ×10^5, the “Number of cells that infiltrated the liver: CD3^+ NK−” value is listed as 2.29 ± 0.53 ×10^5, the “Number of cells that infiltrated the liver: CD4^+” value is on record as 0.93 ± 0.33 ×10^5 and the “Number of cells that infiltrated the liver: CD8^+” value was 2.53 ± 0.64 ×10^5. Under setting [1], the “Number of cells that infiltrated the liver: CD11b^+” value is reported as 8.47 ± 2.75 ×10^5, the “Number of cells that infiltrated the liver: NK^+ CD3−” value was 0.40 ± 0.24 ×10^5 and the “Number of cells that infiltrated the liver: Total cells” value is 16.3 ± 3.5 ×10^5. Moreover, the “Decrease of total number of infiltrated cells in the liver” value (group receiving KRP-203 (1 mg/kg) vs control) was “about 50%”.

The values are drawn from patent US8048928B2, “Therapeutic agent for treating liver disease containing 2-amino-1,3-propanediol derivative as active ingredient, and method for treating liver disease” (Kyorin Pharmaceutical Co., Ltd., priority 2005, dated 2011).
